Assay results published in patent publication US11548893B2 (priority 2017, dated 2023).
pEC50: −log10 of the molar value. Where two headings read alike, the source gives them in different places.

How the values were obtained:
[1] = test system: EBOV (mucin-deleted glycoprotein, VSV pseudotype); experiment: microbe, parasite or virus in culture; format: cell-based, Zaire ebolavirus; conditions: read-out: EC50 Pseudotype Assays EBOV
[2] = test system: EBOV_FL: full-length Ebola Zaire GP (VSV pseudotype); experiment: microbe, parasite or virus in culture; format: cell-based, Zaire ebolavirus; conditions: Zaire ebolavirus, Vero, 24 h, read-out: EC50 Pseudotype Assays EBOV_FL
[3] = test system: BDBV (mucin-deleted glycoprotein, VSV pseudotype); experiment: microbe, parasite or virus in culture; format: cell-based, Bundibugyo ebolavirus; conditions: Vesicular stomatitis virus, Vero, 24 h, read-out: EC50 Pseudotype Assays BDBV
[4] = test system: SUDV (glycoprotein, VSV pseudotype); experiment: microbe, parasite or virus in culture; format: cell-based, Sudan ebolavirus; conditions: Vesicular stomatitis virus, Vero, 24 h, read-out: EC50 Pseudotype Assays SUDV
[5] = test system: MARV (full-length glycoprotein, VSV pseudotype); experiment: microbe, parasite or virus in culture; format: cell-based, Marburg marburgvirus; conditions: for pEC50: Vesicular stomatitis virus, Vero, 24 h, read-out: EC50 Pseudotype Assays MARV
[6] = in vitro; conditions: African green monkey, Cytotox CC50

SMILES | pEC50 ([1]; Zaire ebolavirus, Vero, 24 h) | pEC50 [2] | pEC50 [3] | pEC50 [4] | pEC50 [5] | CC50 [6] | pEC50 [1] | fold more potent against Marburgvirus infection compared to the opposite enantiomer [5]
CCC12CC3CC(C(=O)NC4(C)CCNCC4)(C1)CC(c1ccccc1)(C3)C2 (racemic) [Example A26] | 6.89 | 6.70 | 6.48 | 6.22 | 5.59 | 6700 nM |  | 
C[C@]12CC3CC(C(=O)N4CCC5(CCCN5)CC4)(C1)C[C@@](c1ccccc1)(C3)C2 [Example B10] | 7.35 | 7.30 | 7.15 | 6.96 |  | 12300 nM |  | 
C[C@@]12CC3CC(C(=O)N4CCC(N)CC4)(C1)C[C@](c1ccccc1)(C3)C2 [Example C7] | 6.91 | 6.77 | 6.70 | 6.47 | 5.09 | 13000 nM |  | 
CCC12CC3CC(C(=O)N[C@@H]4CCNC[C@H]4O)(C1)CC(c1ccccc1)(C3)C2 (mixture of isomers) [Example A25] | 7.39 | 7.22 | 6.70 | 6.10 | 5.07 | 11800 nM |  | 
CCC12CC3CC(C(=O)N[C@H]4CCN[C@@H](C)C4)(C1)CC(c1ccccc1)(C3)C2 (mixture of isomers) [Example A21] | 7.66 | 7.70 | 6.68 | 6.38 | 5.16 | 3900 nM |  | 
C[C@@]12CC3CC(C(=O)N[C@H]4CC[C@H](CN)CC4)(C1)C[C@](c1ccccc1)(C3)C2 [Example C3] | 7.14 | 7.52 | 6.72 | 6.07 | 5.50 | 5200 nM |  | 
C[C@@]12CC3CC(C(=O)N[C@@H]4CCNC[C@H]4F)(C1)C[C@](c1ccccc1)(C3)C2 [Example C5] | 6.77 |  | 6.96 | 6.11 | < 5.52 | 11600 nM |  | 
C[C@]12CC3CC(CN4CCC(N)CC4)(C1)C[C@@](c1ccccc1)(C3)C2 [Example B69] | 6.37 |  | 6.55 | 6.15 | 6.03 | 4670 nM |  | 
CC12CC3CC(C(=O)N4CC5(CCNC5)C4)(C1)CC(c1ccccc1)(C3)C2 (racemic) [Example A49] | 7.64 | 6.72 | 6.96 | 6.70 |  | 21900 nM |  | 
CC12CC3CC(C(=O)N4CCC(N)CC4)(C1)CC(c1ccccc1)(C3)C2 (racemic) [Example A33] | 7.30 | 6.70 | 7.16 | 6.52 |  | 13600 nM |  | 
CC[C@@]12CC3CC(C(=O)N[C@H]4CC[C@H](N)CC4)(C1)C[C@](c1ccccc1)(C3)C2 [Example C16] | 6.45 |  | 6.41 | 6.03 | 5.53 |  |  | 
C[C@]12CC3CC(C(=O)N4CCC(N)C5(CC5)C4)(C1)C[C@@](c1ccccc1)(C3)C2 (stereo partly shown) [Example B9] | 7.60 | 7.22 | 7.07 | 7.12 |  | 8900 nM |  | 
CCC12CC3CC(C(=O)N[C@H]4CCNC[C@@H]4F)(C1)CC(c1ccccc1)(C3)C2 (mixture of isomers) [Example A19] | 7.64 | 7.40 | 6.58 | 6.33 | 5.46 | 7300 nM |  | 
C[C@@]12CC3CC(C(=O)N4CCC5(CCCN5)CC4)(C1)C[C@](c1ccccc1)(C3)C2 [Example C10] | 7.00 | 6.74 | 7.07 | 6.81 |  | 12700 nM |  | 
CC12CC3CC(CN[C@H]4CC[C@H](N)CC4)(C1)CC(c1ccccc1)(C3)C2 (stereo partly shown) [Example A65] | 6.55 |  | 6.76 | 6.74 | 6.05 | 1620 nM |  | 
CC[C@]12CC3CC(C(=O)N[C@H]4CC[C@H](N)CC4)(C1)C[C@@](c1ccccc1)(C3)C2 [Example B16] | 7.80 |  | 7.24 | 6.74 | 5.52 |  |  | 
CCC12CC3CC(C(=O)NC4CCNCC4(C)C)(C1)CC(c1ccccc1)(C3)C2 (racemic) [Example A20] | 7.38 | 7.52 | 6.87 | 6.48 | 5.80 | 5700 nM |  | 
C[C@@]12CC3CC(C(=O)N[C@H]4CCNC[C@@H]4F)(C1)C[C@](c1ccccc1)(C3)C2 [Example C6] | 6.49 |  | 6.60 | 6.32 | 5.53 | 12700 nM |  | 
C[C@@]12CC3CC(CN4CCC(N)CC4)(C1)C[C@](c1ccccc1)(C3)C2 [Example C69] | 6.50 |  | 6.68 | 6.51 | 5.94 | 3800 nM |  | 
CC12CC3CC(C(=O)NC4CC5CNC4C5)(C1)CC(c1ccccc1)(C3)C2 (racemic) [Example A30] | 6.60 |  | 6.15 | 6.10 | 5.30 | 30000 nM |  | 
CCC12CC3CC(C(=O)N[C@@H]4CCNC[C@H]4F)(C1)CC(c1ccccc1)(C3)C2 (mixture of isomers) [Example A17] |  | 7.60 | 6.90 | 6.59 | 5.23 | 6000 nM | 7.41 | 
CCC12CC3CC(C(=O)N[C@H]4CC[C@H](CN)CC4)(C1)CC(c1ccccc1)(C3)C2 (mixture of isomers) [Example A22] | 7.72 | 8.00 | 6.73 | 6.38 | 5.55 | 3700 nM |  | 
NC1CCN(CC23CC4CC(C2)CC(c2ccccc2)(C4)C3)CC1 [Example A68] | 6.22 |  | 6.55 | 6.40 | < 5.52 | 7470 nM |  | 
C[C@@]12CC3CC(C(=O)N[C@H]4CN5CCC4CC5)(C1)C[C@](c1ccccc1)(C3)C2 [Example C58] | 6.11 |  | 6.73 | 6.00 | 7.00 | 10100 nM |  | 16 fold
C[C@H]1C[C@@H](NC(=O)C23CC4C[C@](C)(C2)C[C@@](c2ccccc2)(C4)C3)CCN1 [Example C4] | 7.11 | 7.52 | 6.75 | 5.99 | < 5.52 | 14000 nM |  | 
CC12CC3CC(C(=O)N4CCC5(CCCN5)CC4)(C1)CC(c1ccccc1)(C3)C2 (racemic) [Example A38] | 7.40 | 7.15 | 6.98 | 6.89 |  | 6910 nM |  | 
CC12CC3CC(C(=O)NC4CC5CC4CN5)(C1)CC(c1ccccc1)(C3)C2 (racemic) [Example A31] | < 6.00 |  | < 6.00 | < 6.00 | < 6.00 | 26000 nM |  | 
CCC12CC3CC(CN[C@H]4CC[C@H](N)CC4)(C1)CC(c1ccccc1)(C3)C2 (stereo partly shown) [Example A66] | 6.66 |  | 6.70 | 6.31 | 6.01 | 4060 nM |  | 
CC12CC3CC(C(=O)N4CCCC(N)CC4)(C1)CC(c1ccccc1)(C3)C2 (racemic) [Example A43] | 6.83 |  | 6.90 | 6.43 |  | 13000 nM |  | 
CC12CC3CC(C(=O)N4CCCNCC4)(C1)CC(c1ccccc1)(C3)C2 (racemic) [Example A34] | 7.05 |  | 6.92 | 6.74 |  | 23600 nM |  | 
